# Tests used:
# MM cells = assay: transwell migration assay of MM cells toward SDF-1; type: cell-based
# Procedure: AMD3100 was evaluated in amounts of 0-100 μM with all wells containing 20 nM SDF-1 in the lower chambers. […] 10 μM of anti-CXCR4MAB171 antibody inhibited migration to 53%, and 200 μM of MAB171 inhibited migration to 35% compared to a control (P=0.007).
# The transwell migration assay was used to test the effect of the CXCR4 inhibitor AMD3100 on the migration of MM cells.
# Similarly, the transwell migration assay was used to test the effect of the anti-CXCR 4 antibody MAB171 (10-800 μM) for 16 hours and its IgG2a isotype control on the in vitro migration of MM cells. […] Anti-CXCR4MAB171 inhibited 10 μM migration to 53%, and 200 μM migration to 35% compared with the control (P=0.007).
# 5T33mM cells [1] = details: recipient mice treated with inhibitor
# Procedure: AMD3100 and PBS is implanted, and the survival rate after 2 hours, 24 hours and 6 days is measured.
# 5T33mM cells, obtained as described above, are injected into recipient mice.
# 5T33mM cells [2] = assay: survival and serum IgG2b of mice injected with 5T33mM cells; type: in vivo, mouse; details: subcutaneous osmotic pump, 25 mg/mL, 0.5 μl/hr, 21 days, started at the time of cell injection; versus PBS
# Procedure: FIG. 5 is a graph showing the survival of C57BL/6 mice after injection with 10×10^6 5T33^eGFP cells. Osmotic pumps are installed at the time of injection, and either AMD3100 or PBS is implanted. The osmotic pumps are changed every 7 days, and the pump administration is discontinued after 21 days.
# AMD3100 is delivered via a subcutaneous osmotic pump at a concentration of 25 mg/mL and a delivery rate of 0.5 μl/hr. The osmotic devices delivered the drug for 21 days.
smiles,measurement,setting,value
c1cc(CN2CCCNCCNCCCNCC2)ccc1CN1CCCNCCNCCCNCC1 [AMD3100],inhibition at 10 µM,"MM cells; 10 μM AMD3100, 16 hours, 20 nM SDF-1 in lower chambers, read-out: inhibition of migration of MM cells compared with control",70%
same,dose dependence of inhibition of MM cell migration,"MM cells; AMD3100 0-100 μM, MAB171 0-400 μg/mL or 10-800 μM, 16 hours",dose-dependent inhibition of migration
same,inhibition of migration at doses higher than 10 μM,"MM cells; AMD3100 above 10 μM up to 100 μM, 16 hours",did not induce further inhibition of migration
same,homing of 5T33mM cells to bone marrow,5T33mM cells [1]; 2 hours,does not affect
same,retention of 5T33mM cells in bone marrow,5T33mM cells [1]; 24 hours,does not affect
same,proliferation/survival of 5T33mM cells in bone marrow,5T33mM cells [1]; 6 days,significantly reduces
same,survival of mice injected with 5T33 cells,5T33mM cells [2],an increase in survival is observed

# Source: patent publication US8569280B2, “Methods for the treatment of multiple myeloma” (Immune Disease Institute, priority 2005, dated 2013)
